Reference: patent US20140212800A1, “ELECTROPHOTOGRAPHIC PHOTOSENSITIVE MEMBER, PROCESS CARTRIDGE AND ELECTROPHOTOGRAPHIC APPARATUS” (CANON KABUSHIKI KAISHA, priority 2013, published 2014)

Experiment: Solubility of the charge transporting substance in 100 g of first / second solvent
Type: physicochemical
Details: 23° C., 1 atmosphere; for Solubility Y1: in 100 g of toluene (first solvent)
Procedure: The charge transporting layer satisfying the expressions (4-1) to (4-5) is formed by drying a coat of a charge-transporting-layer coating liquid containing the charge transporting substance, the binder resin, and the following first solvent and second solvent. Additionally, when the solubility of the charge transporting substance in 100 g of the first solvent in an environment at 23° C. under 1 atmosphere is designated as Y1(g), and the solubility of the charge transporting substance in 100 g of the second solvent in an environment at 23° C. under 1 atmosphere is designated as Y2(g), solubility Y1 and solubility Y2 satisfy the following expression (6).
Each of electrophotographic photosensitive members was produced in the same manner as in Example 1 except that the charge transporting substance represented by the formula (CTM-2), polyester resin A having the structural unit represented by the formula (1-18) and o-xylene in Example 1 were changed as shown in Table 1.

SMILES | Solubility Y1 | Solubility Y2 (in 100 g of acetophenone (second solvent)) | Solubility Y2 (in 100 g of methyl benzoate (second solvent))
Cc1ccc(N(C=C(c2ccccc2)c2ccccc2)c2ccc(-c3ccc(N(C=C(c4ccccc4)c4ccccc4)c4ccc(C)cc4C)cc3)cc2)c(C)c1 [CTM-3] | 25 g |  | 
C(/C=C/c1cccc(N(c2ccccc2)c2ccc(-c3ccc(N(c4ccccc4)c4cccc(/C=C/C=C/c5ccccc5)c4)cc3)cc2)c1)=C\c1ccccc1 [CTM-2] | 20 g | 8 g | 8 g
